US11832662B2, “Methods and devices for preventing viral transmission” (priority 2020, dated 2023)
Read-outs that look alike come from different tables or passages of the source.

How the values were obtained:
HUVEC cells [1] = assay: EF-induced elongation of endothelial cells (long:short axis ratio); format: cell-based, human; details: versus control
Experimental: HUVEC cells were seeded in a trough formed by two parallel (1 cm apart) strips of glass coverslip (No. 1, length of 22 mm) fixed to the base of the dish with silicone grease. Scratch lines were made perpendicular to the long axis of the chamber with a fine sterile needle and used as reference marks for directed cell migration. Cells were incubated for 24-48 hours (37° C., 5% CO2) before a roof coverslip was applied and sealed with silicone grease. The final dimensions of the chamber, through which current was passed, were 22×10×0.2 mm. Agar-salt bridges not less than 15 cm long were used to connect silver/silver-chloride electrodes in beakers of Steinberg's solution (58 mM NaCl, 0.67 mM KCl, 0.44 mM Ca(NO3)2, 1.3 mM MgSO4, 4.6 mM Trizma base, pH 7.8-8.0), to pools of excess culture medium at either side of the chamber. Field strengths were measured directly at the beginning of, the end of and during each experiment. No fluctuations in field strength were observed. […] (50 μM), the Rho kinase inhibitor Y27632 (50 μM), both Akt and Rho kinase inhibitors (10 μM each) or latrunculin (50 nM) for 1 hour before EF stimulation. The same concentration of drug was present during EF exposure in a CO2 incubator.
A series of images was taken with an image analyser immediately before EF exposure and at 4, 8 and 24 hours of EF exposure. Cell orientation was quantified as an orientation index (Oi), which is defined as Oi=cos 2(α), where a is the angle formed by the long axis of a cell with a line drawn perpendicular to the field lines. A cell with its long axis parallel to the vector of the EF will have an Oi of −1, and a cell with its long axis exactly perpendicular to the EF vector will have an Oi of +1. […] The significance of this two-dimensional orientation distribution against randomness was calculated using Rayleigh's distribution. A long:short axis ratio was calculated for assessment of elongation.
HUVEC cells elongated dramatically in an EF. […] We quantified the elongation of the cells using a long:short axis ratio. […]

HUVEC cells [2] = assay: EF-induced reorientation of endothelial cells (orientation index Oi); format: cell-based, human
Experimental: HUVEC cells were seeded in a trough formed by two parallel (1 cm apart) strips of glass coverslip (No. 1, length of 22 mm) fixed to the base of the dish with silicone grease. Scratch lines were made perpendicular to the long axis of the chamber with a fine sterile needle and used as reference marks for directed cell migration. Cells were incubated for 24-48 hours (37° C., 5% CO2) before a roof coverslip was applied and sealed with silicone grease. The final dimensions of the chamber, through which current was passed, were 22×10×0.2 mm. Agar-salt bridges not less than 15 cm long were used to connect silver/silver-chloride electrodes in beakers of Steinberg's solution (58 mM NaCl, 0.67 mM KCl, 0.44 mM Ca(NO3)2, 1.3 mM MgSO4, 4.6 mM Trizma base, pH 7.8-8.0), to pools of excess culture medium at either side of the chamber. Field strengths were measured directly at the beginning of, the end of and during each experiment. […] (50 μM), the Rho kinase inhibitor Y27632 (50 μM), both Akt and Rho kinase inhibitors (10 μM each) or latrunculin (50 nM) for 1 hour before EF stimulation. The same concentration of drug was present during EF exposure in a CO2 incubator.
A series of images was taken with an image analyser immediately before EF exposure and at 4, 8 and 24 hours of EF exposure. Cell orientation was quantified as an orientation index (Oi), which is defined as Oi=cos 2(α), where a is the angle formed by the long axis of a cell with a line drawn perpendicular to the field lines. A cell with its long axis parallel to the vector of the EF will have an Oi of −1, and a cell with its long axis exactly perpendicular to the EF vector will have an Oi of +1. A randomly oriented population of cells will have an average Oi {defined as [Σn cos 2(α)]÷n} of 0. The significance of this two-dimensional orientation distribution against randomness was calculated using Rayleigh's distribution. A long:short axis ratio was calculated for assessment of elongation.

[3] = system: HaCaT human keratinocytes; assay: Scratch assay, keratinocyte migration, Example 3; format: cell-based; details: LLEC-treated cells, N-acetylcysteine 5 mM 1 h pretreatment, IGF-1R inhibitor picropodophyllin 50 nM
[4] = drug present 1 hour before and during EF exposure

| Molecule | long:short axis ratio / elongation response in EF-treated cells (HUVEC cells [1]) | orientation response of cells in an EF (HUVEC cells [2]; [4]) | also measured |
| --- | --- | --- | --- |
| 1-L-6-hydroxymethyl-chiro-inositol 2-[(R)-2-O-methyl-3-O-octadecylcarbonate] [Akt inhibitor] | significantly decreased | significantly decreased | – |
| COc1cc([C@@H]2c3cc4c(cc3[C@H](O)[C@H]3COC(=O)[C@@H]23)OCO4)cc(OC)c1OC [IGF-1R inhibitor, picropodophyllin] | – | – | LLEC-increased keratinocyte migration in presence of blocker [3]: attenuated the increased keratinocyte migration |
| C/C1=C/C(=O)O[C@@H]2C[C@@H](CC[C@H](C)/C=C\C=C\CC1)O[C@@](O)([C@@H]1CSC(=O)N1)C2 [Latrunculin A] | completely abolished | suppressed the orientation response significantly | – |
| CC(=O)N[C@@H](CS)C(=O)O [N-Acetyl Cysteine] | – | – | LLEC-increased keratinocyte migration in presence of blocker [3]: failed to reproduce the increased migration; LLEC-increased keratinocyte migration in presence of blocker ([3]; listed as N-acetyl cysteine): prevented |
| N#CC(=C(/N)Sc1ccccc1N)/C(C#N)=C(\N)Sc1ccccc1N [U0126] | – | – | orientation index Oi (HUVEC cells [2]): 0.33±0.03; orientation response of cells in an EF (HUVEC cells [2]): decreased the orientation to a similar extent |
| COc1cc2ncnc(Nc3ccc(Cl)cc3F)c2cc1OC [VEGFR inhibitor, 4-[(4′-chloro-2′-fluoro)phenylamino]-6,7-dimethoxyquinazoline] | – | completely abolished | – |
| C[C@@H](N)[C@H]1CC[C@H](C(=O)Nc2ccncc2)CC1 [Y27632] | significantly decreased | decreased the orientation response significantly | – |
